The test system of assay [1] is T cells from skin draining lymph nodes. Kind of assay: In vivo OVA immunization and T cell re-stimulation. The arrangement: species or system mouse. To be noted: for antigen-specific tetramer+IFNγ+ T cell responses: 7 days post immunization with OVA, 7 days ex vivo re-stimulation with OVA-loaded BMDC. The method, then: Flow cytometry: After FcR blockade, 7 days BMDCs were resuspended in MACS buffer (PBS with 1% FCS and 2 mM EDTA), and stained with the following fluorescently conjugated antibodies (BioLegend): anti-CD11c (clone N418), anti-I-A/I-E (clone M5/114.15.2), anti-CD40 (clone 3/23), anti-CD80(16-10A1), anti-CD69 clone (H1.2F3), anti-H-2Kb (clone AF6-88.5). Single cell suspension from the tumor or draining inguinal lymph nodes, or skin inguinal adipose tissue were resuspended in MACS buffer (PBS with 1% FCS and 2 mM EDTA), and stained with the following fluorescently conjugated antibodies (BioLegend): anti-CD8α (clone 53-6.7), anti-CD4 (clone RM4-5), anti-CD44 (clone IM7), anti-CD62L (MEL-14), anti-CD3 (17A2), anti-CD103 (2E7), anti-CD69 clone (H1.2F3), anti-CD45 (A20 or 30F11). LIVE/DEAD™ Fixable Violet Dead Cell Stain Kit (Molecular probes) was used to determine the viability of cells, and cells were stained for 20 minutes in PBS at 4° C. Draining inguinal lymph nodes T cells were stained with OVA-peptide tetramers at room temperature for 1 h. PE-conjugated H2K(b) SIINFEKL (OVA 257-264; SEQ ID NO: 1) and APC conjugated I-A(b) AAHAEINEA (OVA 329-337; SEQ ID NO: 2) were used. I-A(b) and H2K(b) associated with CLIP peptides were used as isotype controls. Tetramers were purchased for NIH tetramer core facility. in some experiments, FITC anti-CD8.1 (clone Lyt-2.1 CD8-E1) purchased from accurate chemical was used with tetramers. To determine absolute number of cells, COUNTBRIGHT counting beads (Molecular probes) were used, following the manufacturer's protocol. Appropriate isotype controls were used as a staining control. Data were acquired on a BD FACS ARIA or BD Fortessa. Data were analyzed using FlowJo software.
Intracellular staining: For intracellular cytokine staining, cells were stimulated with 50 ng/ml phorbol 12-myristate 13-acetate (PMA) and 500 ng/ml ionomycin (Sigma-Aldrich) in the presence of GolgiStop (BD) and brefeldin A for 4-5 h. Cells were then washed twice with PBS, and stained with LIVE/DEAD™ Fixable violet or green Dead Cell Stain Kit (Molecular probes) in PBS for 20 min at 4° C. Cells were washed with MACS buffer, and stained for appropriate surface markers for 20 min at 4° C. After two washes, cells were fixed and permeabilized using BD Cytofix/Cytoperm kit for 20 min at 4° C., then washed with 1× perm wash buffer (BD) per manufacturer's protocol. Intracellular cytokine staining was performed in 1× perm buffer for 20-30 min at 4° C. with the following conjugated antibodies all purchased from BioLegend: anti-Ki67 (clone 16A8), anti-IFN-γ (clone XMG1.2), anti TNFα (clone MP6-XT22), anti-Gata3 (16E10A23), anti-IL4(11B11), anti-IL10 (clone JES5-16E3). Data were acquired on a BD FACS ARIA or BD Fortessa. Data were analyzed using FlowJo software.
In vivo immunization and T cell re-stimulation: Female C57BL/6J mice aged 8 weeks, were immunized subcutaneously (s.c.) on the left lower back with either 150 μg/mouse endotoxin-free OVA plus 10 μg/mouse LPS emulsified in incomplete Freund's adjuvant, or with 150 μg/mouse endotoxin-free OVA, plus 65 μg/mouse oxPAPC or PGPC, plus 10 μg/mouse LPS emulsified in incomplete Freund's adjuvant. In some experiments mice were injected s.c. with OVA alone or with LPS emulsified in Alum. 7 or 40 days after immunization, CD4^+ T cells and CD8^+ T cells were isolated from the draining lymph nodes of immunized mice by magnetic cell sorting with anti-CD4 beads or anti-CD8 beads and columns (Miltenyi Biotech). Enriched cells were then sorted as live CD45^+CD3^+CD4^+ cells or live CD45^+CD3^+CD8^+ using FACS ARIA. Purity post-sorting was >98%. Sorted cells were then seeded in 96-well plates at a concentration of 100.000 cells per well in the presence of 10-20×10^3 DC pulsed with serial dilutions of OVA, starting at 1 mg/ml. […]

For another assay, the system named is BMDCs. Description: BMDC stimulation, cytokine ELISA and LDH release. It is filed as cell-based, mouse. To be noted: LPS alone or LPS priming 3 h then stimuli 21 h, ELISA. As to the method:
Cell culture: BMDCs were generated by differentiating bone marrow in IMDM (Gibco), 10% B16-GM-CSF derived supernatant, 2 μM 2-mercaptoethanol, 100 U/ml penicillin, 100 μg/ml streptomycin (Sigma-Aldrich) and 10% FBS. 6 day after culture, BMDCs were washed with PBS and re-plated in IMDM with 10% FBS at a concentration of 1×10^6 cells/ml in a final volume of 100 μl. CD11c^+ DC purity was assessed by flow cytometry using BD Fortessa and was routinely above 80%. Splenic DCs from mice injected with B16-FLT3 for 15 days, were purified as CD11c^+MHC^+ live cells, then plated at a concentration of 1×10^6 cells/ml in a final volume of 100 μl in complete IMDM. To induce hyperactive or pyroptotic BMDCs, DCs were primed with LPS (1 μg/ml) for 3 hours, then stimulated with OxPAPC or PGPC (100 μg/ml) or alum (100 μg/ml) for 21 h in complete IMDM. […]
LDH Assay and ELISAs: Fresh supernatants were clarified by centrifugation after BMDC stimulation, then assayed for LDH release assay using the Pierce LDH cytotoxicity colorimetric assay kit (Life Technologies) following the manufacturer's protocol. Measurements for absorbance readings were performed on a Tecan plate reader at wavelengths of 490 nm and 680 nm. […] ELISA for IL-1β, TNFα, IL-10, IL-12p70, IFNγ, IL-2, IL-13, IL-4 and IL-17 were performed using eBioscience Ready-SET-Go! […]

In another assay the test system is OT-II naïve CD4+ T cells. Kind of assay: OT-II in vitro T-cell stimulation. It is filed as cell-based, mouse. As to conditions: OVA-loaded BMDCs co-cultured with OT-II T cells; ELISA. The method, then: OT-I and OT-II in vitro T-cell stimulation: Splenic CD8^+ and CD4^+ T cells were sorted from OT-I and OT-II mice by magnetic cell sorting with anti-CD8 beads or anti-CD4 beads respectively (Miltenyi Biotech). Sorted T cells were then seeded in 96-well plates at a concentration of 100.000 cells per well in the presence of either 20.000 or 10.000 DCs (5:1 or 10:1 ratio) that were pretreated with either LPS (activation stimuli) or LPS+PGPC (hyperactivation stimuli) or LPS+Alum (pyroptotic stimuli) and pulsed (or not) with OVA protein or SIINFEKL (SEQ ID NO: 1) peptide at 100 μg/ml for 2 hours. 5 days post culture, supernatants were collected and clarified by centrifugation for short-term storage at −20° C. and cytokine measurement by ELISA.
Intracellular staining: For intracellular cytokine staining, cells were stimulated with 50 ng/ml phorbol 12-myristate 13-acetate (PMA) and 500 ng/ml ionomycin (Sigma-Aldrich) in the presence of GolgiStop (BD) and brefeldin A for 4-5 h. Cells were then washed twice with PBS, and stained with LIVE/DEAD™ Fixable violet or green Dead Cell Stain Kit (Molecular probes) in PBS for 20 min at 4° C. Cells were washed with MACS buffer, and stained for appropriate surface markers for 20 min at 4° C. […] Data were analyzed using FlowJo software.
(In an ELISA, binding on a coated surface is turned into a signal by an enzyme label.)

The next assay relates to FLT3-DCs. Description: FLT3-DC stimulation, cytokine ELISA and LDH release. It is filed as cell-based, mouse. As to conditions: ELISA. As to the method: FIGS. 14A-B. Oxidized phospholipids induce hyperactive cDC1 and cDC2 cells that display a hypermigratory phenotype. (A) Wild-type or NLRP3^−/− or Casp1/11^−/− BMDCs generated using FLT3L were either left untreated (none) or treated with LPS alone, or Alum alone, or PGPC alone for 24 h, or BMDCs were primed for 3 h with LPS, then treated with indicated stimuli for 21 h. IL-1β and TNFα release was monitored by ELISA. The percentage of cell death was measured by LDH release in the cell supernatants. Means and SDs from three replicates are shown and data are representative of at least three independent experiments. (B) Wild-type BMDCs generated using FLT3L were sorted as cDC1 or cDC2 cells then treated with indicated stimuli as in A. IL-1β and TNFα release was monitored by ELISA. The percentage of cell death was measured by LDH release in the cell supernatants. Means and SDs from three independent experiments done in two different laboratories.
Virtually all studies assessing the state of cell-hyperactivation have focused on the ability of bone marrow derived DC (BMDCs), generated with the cytokine granulocyte-macrophage colony-stimulating factor (GM-CSF), to release IL-1β while retaining viability. […] To examine whether conventional DCs can achieve a hyperactivation state, we used BMDCs generated using the DC hematopoietin Fms-like tyrosine kinase 3 ligand (Flt3L). […]

The mark [2] stands for this setting: OVA immunization, 40 days post-immunization, ex vivo re-stimulation with OVA-loaded BMDCs.

`CCCCCCCCCCCCCCCC(=O)OC[C@H](COP(=O)([O-])OCC[N+](C)(C)C)OC(=O)CCCC(=O)O` [PGPC, [(2R)-2-(4-carboxybutanoyloxy)-3-hexadecanoyloxypropyl] 2-(trimethylazaniumyl)ethyl phosphate]: the “antigen-specific tetramer+IFNγ+ T cell responses” value in assay [1] is recorded as “highest frequency of tetramer+IFNγ+ responses”. In assay [1] (OVA plus LPS plus lipid, in IFA), the “effector and memory T cell generation” value is “enhance the magnitude of effector and memory T cell generation”.
As for lipopolysaccharide [LPS], the figures for the IL-1β release result with BMDCs and with FLT3-DCs were “did not induce the release of IL-1β” and “did not induce IL-1β release from DCs”, respectively. Also, the “release of IL-10 and IL-13 (TH2-associated cytokines)” value with OT-II naïve CD4+ T cells was “large amounts of IL-10, and IL-13”. Moreover, the “antigen-specific tetramer+IFNγ+ T cell responses” value in assay [1] is listed as “higher IFNγ effector function”. Moreover, the “T central memory cells (TCM) in dLN” value in assay [1] (40 days post-immunization with OVA) is recorded as “less abundant”. In assay [1] (setting [2]), the “IFNγ production by re-stimulated T cells” value was “producing IFNγ, IL-10, IL-4 and IL-13”. Moreover, in assay [1] (setting [2]), the “IL-10, IL-4 and IL-13 production by re-stimulated T cells” value was “producing IFNγ, IL-10, IL-4 and IL-13”.

For the origin of these results see patent publication US20230076515A1, “STIMULI THAT HYPERACTIVATE RESIDENT DENDRITIC CELLS FOR CANCER IMMUNOTHERAPY” (Children's Medical Center Corporation, priority 2019, published 2023).
